Laboratory results published in PMC3827828, “Novel angiotensin I-converting enzyme inhibitory peptides derived from an edible mushroom, Pleurotus cystidiosus O.K. Miller identified by LC-MS/MS” (BMC Complementary and Alternative Medicine, 2013).
“Also recorded” adds a separate entry of the source. Where two headings read alike, the source gives them in different places. Peptide text beside a SMILES is read from it.

How the values were obtained:
ACE = settings: cited from earlier work
Procedure: Peptide LRIPVA from spinach inhibited 50% of the ACE at a concentration as low as 0.38 μM [29]. However, there were also studies reported on similar IC50 value with the current study. […] It was predicted to remain stable throughout the digestion process. […] Jimsheena and Gouda had shown the important role of stere ... || (+ 2 further places)

[1] = biological target: T1, Angiotensin I-converting enzyme (ACE) (Homo sapiens, UniProt P12821); assay: ACE inhibitory activity assay (ACE kit-WST); format: biochemical; settings: synthesised peptide, absorbance 450 nm, triplicate, mean ± standard deviation
T1 construct: purchased Dojindo Laboratories ACE kit-WST
Procedure: (§1) In the current study, ACE inhibitory activity was determined using an ACE inhibitory assay kit (ACE kit-WST, Dojindo Laboratories, Kumamoto, Japan). The assay was carried out according to the protocol provided by the manufacturer. Absorbances of the reactions were measured using a Sunrise® ELISA microplate reader (Tecan, Grödig, Austria) at 450 nm. The ACE inhibitory activity of the samples was calculated using the formula given in the protocol. The concentration of the ACE inhibitor required to inhibit 50% of ACE activity under the above assay conditions was defined as the IC50.
The analysis of ACE inhibitory activity was carried out in triplicate and result was reported as mean ± standard deviation. Mean differences of ACE inhibitory activity in SEC fractions was analyzed using one-way ANOVA in Statgraphics Plus 3.0 at p < 0.05.

[2] = biological target: T1, Angiotensin I-converting enzyme (ACE); assay: ACE inhibitory activity after simulated gastrointestinal digestion; format: biochemical; settings: mean, n = 3; for inhibition at 100 µg/mL (stock): 0.1 mg/ml, pepsin 2.5 hrs, then pH 8.0, 0.025% chymotrypsin and 0.025% trypsin, another 2.5 hrs, read-out: ACE inhibitory activity after pepsin-pancreatin digestion; for inhibition at 100 µg/mL (stock) / ACE inhibitory activity after digestion by pepsin: 37°C; for ACE inhibitory activity without gastrointestinal digestion (control): peptide solution 0.1 mg/ml incubated in buffer solutions (HCl and potassium phosphate buffer); for ACE inhibitory activity after digestion by pepsin: peptide solution 0.1 mg/ml with 0.05% pepsin (0.1 M HCl, pH 2.0), 2.5 hrs
Procedure: as §1
(§2) The stability of the synthesised peptides against gastrointestinal proteases was assessed in vitro by the method of Wu and Ding. The peptide solution (0.1 mg/ml, 0.5 ml) was incubated with 0.5 ml of a 0.05% pepsin solution (0.1 M HCl at pH 2.0) for 2.5 hrs at 37°C. In the successive pepsin-pancreatin digestion test, the peptide solution was adjusted to pH 8.0 after pepsin digestion. Then, 0.5 ml of pancreatin solution [potassium phosphate buffer (0.1 M, pH 8.0) containing 0.025% (w/v) chymotrypsin and 0.025% (w/v) trypsin] was added to the solution. The mixture was incubated for another 2.5 hrs at 37°C. The control (without digestion) consisted of peptide solution incubated in buffer solutions (HCl and potassium phosphate buffer) and was carried out alongside the experiment. After enzymatic treatment, the pepsin solution and pepsin-pancreatin solution were boiled for 10 min to stop the digestion and then centrifuged at 10,000 rpm for 10 min. The supernatants were freeze-dried and used for the measurement of ACE inhibitory activity. The stability of the purified peptides against gastrointestinal enzymes was analysed by SEC.
Figure 3 Effect of simulated gastrointestinal digestion on the ACE inhibitory activity of peptides AHEPVK and GPSMR. Control: The peptide solutions (0.1 mg/ml) were incubated in buffer solutions (HCl and potassium phosphate buffer). P: The peptide solutions were incubated with 0.05% pepsin solution for 2.5 hrs at 37°C. P + T + C: The peptide solutions were successively digested with pepsin for 2.5 hrs. They were further incubated in pancreatin solution for another 2.5 hrs at 37°C. The ACE inhibitory activity are expressed as mean ± standard deviation (n = 3).

[3] = system: pepsin, trypsin and chymotrypsin; assay: Stability against gastrointestinal enzymes observed by SEC; format: in vitro ADME; settings: 0.1 mg/ml; pepsin pH 2.0 2.5 hrs, then trypsin + chymotrypsin pH 8.0 2.5 hrs, 37°C; Biosep SEC-S2000, UV 214 nm
Procedure: as §2
Figure 4 Stability of peptide AHEPVK against gastrointestinal enzymes observed by SEC chromatograms. Separation was performed on a Biosep SEC-S2000 column (300 × 7.8 mm). Mobile phase consisted of 45% acetonitrile containing 0.1% TFA eluted at a flow rate of 1.0 ml/min. […]

[4] = peptides from milk and bonita fish

T1 sequence (P12821 30-1306, species assumed): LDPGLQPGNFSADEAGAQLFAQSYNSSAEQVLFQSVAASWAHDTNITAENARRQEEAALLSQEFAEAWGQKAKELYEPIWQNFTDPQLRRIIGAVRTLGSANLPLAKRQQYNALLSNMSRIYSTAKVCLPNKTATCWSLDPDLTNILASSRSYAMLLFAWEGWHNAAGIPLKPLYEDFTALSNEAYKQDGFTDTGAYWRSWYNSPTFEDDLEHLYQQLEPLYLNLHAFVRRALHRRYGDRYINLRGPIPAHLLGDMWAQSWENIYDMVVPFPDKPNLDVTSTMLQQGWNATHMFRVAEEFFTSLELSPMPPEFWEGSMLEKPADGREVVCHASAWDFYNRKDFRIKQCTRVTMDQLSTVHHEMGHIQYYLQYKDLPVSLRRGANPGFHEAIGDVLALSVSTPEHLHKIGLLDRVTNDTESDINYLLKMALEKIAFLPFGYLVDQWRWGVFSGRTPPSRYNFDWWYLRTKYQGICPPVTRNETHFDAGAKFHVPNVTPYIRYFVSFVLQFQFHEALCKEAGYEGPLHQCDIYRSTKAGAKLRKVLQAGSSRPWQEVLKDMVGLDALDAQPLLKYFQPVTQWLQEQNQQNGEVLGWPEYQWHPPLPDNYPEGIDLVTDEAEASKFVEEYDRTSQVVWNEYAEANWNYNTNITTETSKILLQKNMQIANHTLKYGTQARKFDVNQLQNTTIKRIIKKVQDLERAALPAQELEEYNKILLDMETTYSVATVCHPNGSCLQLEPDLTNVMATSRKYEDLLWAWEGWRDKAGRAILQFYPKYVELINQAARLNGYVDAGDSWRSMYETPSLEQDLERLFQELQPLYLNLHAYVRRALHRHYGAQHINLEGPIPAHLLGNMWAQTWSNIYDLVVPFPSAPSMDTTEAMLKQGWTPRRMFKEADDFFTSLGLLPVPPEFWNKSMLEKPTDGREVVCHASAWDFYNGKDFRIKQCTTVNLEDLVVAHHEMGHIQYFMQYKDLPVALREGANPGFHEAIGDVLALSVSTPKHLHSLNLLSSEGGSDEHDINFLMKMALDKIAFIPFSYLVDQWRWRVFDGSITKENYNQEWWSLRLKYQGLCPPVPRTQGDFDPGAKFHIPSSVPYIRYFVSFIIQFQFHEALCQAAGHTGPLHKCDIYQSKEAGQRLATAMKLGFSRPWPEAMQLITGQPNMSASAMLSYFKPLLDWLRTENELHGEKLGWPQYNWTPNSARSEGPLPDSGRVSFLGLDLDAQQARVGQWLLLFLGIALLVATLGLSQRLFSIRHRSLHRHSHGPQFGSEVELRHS

Compound: LKPNM [pentapeptide from bonita fish]
- IC50 (ACE; [4]): 2.4 µM

Compound: CC(C)[C@H](NC(=O)[C@@H]1CCCN1C(=O)[C@H](CCC(=O)O)NC(=O)[C@H](Cc1c[nH]cn1)NC(=O)[C@H](C)N)C(=O)N[C@@H](CCCCN)C(=O)O [AHEPVK] (H-AHEPVK-OH)
- IC50 [1]: 62.8 µM
- inhibition at 100 µg/mL (stock) [2]: 95.9%
- ACE inhibitory activity without gastrointestinal digestion (control) [2]: 80.27%
- ACE inhibitory activity after digestion by pepsin [2]: 95.38%
- Stability of peptide against gastrointestinal enzymes (SEC chromatograms) [3]: stable throughout gastrointestinal digestion; also recorded: confirmed the stability of AHEPVK against digestive enzymes; also recorded: remained stable following gastrointestinal digestion

Compound: GTEKC [peptide from sweet potato]
- IC50 (ACE; peptides from sweet potato): 61.7 µM

Compound: LRIPVA [peptide from spinach]
- IC50 (ACE; peptide from spinach): 0.38 µM

Compound: PYVRYL [hexapeptide from milk]
- IC50 (ACE; [4]): 2.4 µM

Compound: C[C@H](CS)C(=O)N1CCC[C@H]1C(=O)O [captopril]
- Inhibition pattern against ACE (ACE): competitive manner

Compound: GPCSR [peptide from sweet potato]
- IC50 (ACE; peptides from sweet potato): 276 µM

Compound: CSCC[C@H](NC(=O)[C@H](CO)NC(=O)[C@@H]1CCCN1C(=O)CN)C(=O)N[C@@H](CCCNC(=N)N)C(=O)O [GPSMR] (H-GPSMR-OH)
- IC50 [1]: 278 µM
- inhibition at 100 µg/mL (stock) [2]: 96%
- ACE inhibitory activity without gastrointestinal digestion (control) [2]: 67.08%
- ACE inhibitory activity after digestion by pepsin [2]: 92.22%
- Stability of peptide against gastrointestinal enzymes (SEC chromatograms) [3]: hydrolysed after digestion; also recorded: hydrolysed into smaller fragments
